Assay results from patent US20250163116A1, “NEW METHOD TO TREAT INFECTIOUS DISEASES” (INSERM (INSTITUT NATIONAL DE LA SANTÉ ET DE LA RECHERCHE …, priority 2022, published 2025).

B1: rhANGPTL3: recombinant human ANGPTL3 (3829-AN) from R&D Systems (protein, UniProt Q9Y5C1 17-460, looked up)
Angiopoietin-related protein 3: SRIDQDNSSFDSLSPEPKSRFAMLDDVKILANGLLQLGHGLKDFVHKTKGQINDIFQKLNIFDQSFYDLSLQTSEIKEEEKELRRTTYKLQVKNEEVKNMSLELNSKLESLLEEKILLQQKVKYLEEQLTNLIQNQPETPEHPEVTSLKTFVEKQDNSIKDLLQTVEDQYKQLNQQHSQIKEIENQLRRTSIQEPTEISLSSKPRAPRTTPFLQLNEIRNVKHDGIPAECTTIYNRGEHTSGMYAIRPSNSQVFHVYCDVISGSPWTLIQHRIDGSQNFNETWENYKYGFGRLDGEFWLGLEKIYSIVKQSNYVLRIELEDWKDNKHYIEYSFYLGNHETNYTLHLVAITGNVPNAIPENKDLVFSTWDHKAKGHFNCPEGYSGGWWWHDECGENNLNGKYNKPRAKSKPERRRGLSWKSQNGRLYSIKSTKMLIHPTDSESFE
B2: rhANGPTL8: recombinant human ANGPTL8 (9983-AN) from R&D Systems (protein, UniProt Q6UXH0 22-198, looked up)
Angiopoietin-like protein 8: APMGGPELAQHEELTLLFHGTLQLGQALNGVYRTTEGRLTKARNSLGLYGRTIELLGQEVSRGRDAAQELRASLLETQMEEDILQLQAEATAEVLGEVAQAQKVLRDSVQRLEVQLRSAWLGPAYREFEVLKAHADKQSHILWALTGHVQRQRREMVAQQHRLRQIQERLHTAALPA

The molecules below were run on HDMECs infected with Nm 2C4.3 (assay: Integrity of HDMEC monolayers infected with N. meningitidis (VE-cadherin at intercellular junctions, immunofluorescence)). Details: 1 μg/mL added 30 min after initiation of Nm infection, 2 h 30.
Assay type: cell-based, human
Experimental: FIG. 1. Exogenous ANGPTL4 exerts protective effects on dermal microvascular endothelial cells infected by N. meningitidis. A. HDMECs were infected with Nm 2C4.3 for 30 min and treated with 1 μg/mL of recombinant human ANGPTL4 for 2 h 30. Cells were fixed and stained for cellular actin, VE-cadherin and DAPI and analyzed by fluorescent microscopy. Quantifications of VE-cadherin enrichment at intercellular junctions and of intercellular spaces area were performed on 30 fields with Image J software. Kruskal-Wallis test ** P<0.001; P<0.0001. B. HDMEC were either uninfected or infected with N. meningitidis 2C4.3 for 30 min and treated with 1 μg mL−1 of recombinant human ANGPTL4, its N-terminal portion (nANGPTL4) or its C-terminal portion (cANGPTL4) for 2 h 30. Caspase-3/7 reagent was added to detect apoptosis in real time over 9 h using the IncuCyte® Live-Cell Analysis System
FIG. 2: Vascular protection is conferred by the N-terminal part of ANGPTL4. A, Schematic representation of ANGPTL4 structure. ANGPTL4 contains a N-terminal portion (nANGPTL4, aa 26-164) linked to a C-terminal portion (cANGPTL4, aa 164-406) by a cleavable linker. nANGPTL4 contains a highly conserved lipoprotein lipase (LPL) binding domain (aa 44-55), two cysteines on position 76 and 80 involved in protein oligomerization and a coiled-coil domain (aa 100-143). The C-terminal portion encodes a fibrinogen-like domain. B, HDMECs were infected with Nm 2C4.3 for 30 min and treated with 1 μg/mL of recombinant human ANGPTL4, nANGPTL4 or cANGPTL4 for 2 h 30. Cells were fixed and stained for cellular actin, VE-cadherin and DAPI and analyzed by fluorescent microscopy. B. Quantifications of VE-cadherin enrichment at intercellular junctions and of intercellular spaces area were performed on 30 fields with Image J software. Kruskal-Wallis test ** P<0.001, *** P<0.0001 of four independent experiments performed in triplicate.
FIG. 3: Vascular protection is conferred by a novel binding motif (aa 66-80) present in the N-terminal part of ANGPTL4. A, the indicated peptides were derived from nANGPTL4. B, HDMECs were infected with Nm 2C4.3 for 30 min and treated with 1 μg/mL of each peptides. Quantifications of VE-cadherin enrichment at intercellular junctions was performed on 30 fields with Image J software.
FIG. 4: Vascular protection is conferred by interaction of nANGPTL4 with Syndecan-4. A, HDMECs were infected with Nm 2C4.3 for 30 min and treated with 1 μg/mL of recombinant human ANGPTL4, nANGPTL4 or cANGPTL4 in the absence or in the presence of anti-SDC4 antibody for 2 h 30. Cells were fixed and stained for cellular actin, VE-cadherin and DAPI and analysed by fluorescent microscopy. Quantifications of VE-cadherin enrichment at intercellular junctions and of intercellular spaces area were performed on 30 fields with Image J software. Kruskal-Wallis test ** P<0.001, **** P<0.00001, ns1 P=0.2172; ns2 P>0.999 of four independent experiments performed in triplicate. B, HDMECs were transfected with small interfering RNA (siRNA) against SDC4 or non-targeting siRNA controls for 48 h, infected with Nm 2C4.3 for 30 min and treated with 1 μg/mL of recombinant human ANGPTL4, for 2 h 30. Quantifications of VE-cadherin enrichment at intercellular junctions and of intercellular spaces area were performed on 30 fields with Image J software. Kruskal-Wallis test ** P<0.001, *** P<0.0001, of two independent experiments performed in triplicate.
The day of infection, a suspension of the bacteria from an overnight culture on GCB agar plate was adjusted to OD600=0.05 and incubated for 2 h at 37° C. in a pre-warmed cell culture medium. Cells were infected with bacteria at a multiplicity of infection (MOI) of 100 bacteria per cell (OD=0.1) for 30 minutes, washed twice to remove non-adherent bacteria and infection was allowed to proceed for various periods of time. Cells were then washed and fixed in 4% paraformaldehyde for immunofluorescence analysis. […]
For LSALERRLSA (Peptide P8), the “protective effect on monolayer integrity (adherens junctions, cell detachment) of infected HDMECs” value (“protective effect on monolayer integrity” for short) was “no effect”. With LSALERRLSACGS [Peptide P12] the “protective effect on monolayer integrity” value was “inhibits infection-induced damages”. “PEVLHSLQTQLKAQNSRIQQLFHKVAQQQRHLEKQHLRIQHLQSQFGLLD (Peptide P2)” was tested, and the “protective effect on monolayer integrity” value was “no significant effect”. For QLSALERRLSACGSAC (Peptide P6), the “protective effect on monolayer integrity” value was “completely inhibited infection-induced damages”. With REHAERTRSQLSALERRL (Peptide P5) the “protective effect on monolayer integrity” value was “no effect”. With “REHAERTRSQLSALERRLSACGSACQGT (Peptide P4)” the “protective effect on monolayer integrity” value was “as efficient as P1 in providing protection”. In the case of RTRSQLSALERRLSA (Peptide P7), the “protective effect on monolayer integrity” value is reported as “no effect”. In the case of SALERRLSACGSAC [Peptide P13], the “protective effect on monolayer integrity” value is reported as “inhibits infection-induced damages”. WDEMNVLAHGLLQLGQGL (Peptide P3) was tested, and the “protective effect on monolayer integrity” value was “no protective effects”. For “WDEMNVLAHGLLQLGQGLREHAERTRSQLSALERRLSAAGSAAQGT (Peptide P1 C76A, C80A) [Peptide P1 C76A/C80A]”, the “protective effect on monolayer integrity” value was “efficiently provided cytoprotection to infection-induced damages”. With B1 the “protective effect on monolayer integrity” value was “no protective effect”. In the case of B2, the “protective effect on monolayer integrity” value is reported as “no protective effect”.

These molecules were tested on SCID mice grafted with human skin infected with Nm 2C4.3 (assay: Vascular lesions in SCID mice grafted with human skin infected with N. meningitidis (4 h)). Details: data not shown.
Assay type: in vivo
Experimental: FIG. 7: ANGPTL4 reduces signs of thrombosis, vascular injury and inflammation. A-D, SCID mice grafted with human skins were infected intravenously with Nm 2C4.3 wild-type strain (5×10^6 bacteria) or left uninfected. A period of 30 min or 2 h after bacterial challenge, mice received 1 μg of recombinant human ANGPTL4, nANGPTL4 or cANGPTL4 intravenously or the vehicle as a control. Mice were killed at 4 h post-challenge. This experiment was performed twice with n=3 or 4 mice per group, using skin from two different donors. A, A schematic representation of the protocols used in vivo. B, Control bacteraemia 4 h post-infection (mean±s.e.m.). C, Bacterial colonization within the skin grafts as assessed by immunofluorescence analysis was quantified using ImageJ software as the ratio between bacterial surface colonization and the lumen surface of the vessels. A total of 30-50 vessels per mouse were analysed. Error bars show mean±s.e.m. D, Thrombus formation within the skin grafts was assessed by immunofluorescence analysis and quantified using ImageJ as the ratio between thrombus surfaces and the lumen surface of the vessels. A total of 30-50 vessels per mouse were analysed. Error bars show mean±s.e.m.; *** P<0.0001; ns P=0.0541 two-tailed Student's t-test.
Six-week-old CB17/Icr-Prkdcscid female mice were obtained from Janvier Labs. Human skin tissues were obtained from adult patients undergoing plastic surgery in the Service de Chirurgie Plastique et Reconstructive of the Groupe Hospitalier Saint-Joseph. […] Experimental procedures were performed as previously described in accordance with the guidelines of the Institut National de la Santé et de la Recherche Médicale and conformed to the European ethical legislation (Directive 2010/63/EU). The experimental protocol was approved by the Animal Experimentation Ethics Committee of the Université Paris Descartes (consent forms CEEA34.O.J.L.039.12 and 2018012515596498). […]. A skin flap was created and a full thickness human skin graft was placed onto the wound bed. The transplants were held in place with 6-0 non-absorbable monofilament suture materials, and the flap was then sutured above the transplant. Grafted mice were infected 4-6 weeks after human skin transplantation. N. meningitidis was grown overnight at 37° C. on GCB agar plates prepared without iron and supplemented with 15 μM deferoxamine (Desferal, Novartis). Bacterial colonies were harvested and cultured in RPMI media with 1% BSA medium and 0.06 μM deferoxamine with gentle agitation to reach the exponential phase of growth. Bacteria were then resuspended in physiological saline solution. Mice were infected intravenously with 200 μl (5×10^6 bacteria) of this bacterial suspension. A 10 mg dose of human holotransferrin (R&D Systems) was administered intraperitoneally just before infection. Mice were killed at 4 h after infection. Human skin grafts were carefully collected using a sterile cutter. The tissue was washed in PBS and fixed overnight at 4° C. in 4% paraformaldehyde in phosphate buffer. After washing in phosphate buffer, the specimens were embedded in OCT medium and then frozen at −80° C. Sections of the dermis (7 μm thick) were immobilized on Superfrost Plus microscope slides and subjected to immunofluorescence analysis. Sections were incubated with the primary antibodies for 1 h in PBS/3% BSA then DAPI was added to Alexa-conjugated secondary antibodies for 1 h. After additional washing, coverslips were mounted in glycergel (Dako) and were further analysed using a slide scanner (Lamina, Perkin Elmer). Analysis of the images was performed using ImageJ software (NIH). […]
With B1 the “protective effects on vascular alteration, thrombosis or the release of inflammatory markers” value was “no protective effects”. With B2 the “protective effects on vascular alteration, thrombosis or the release of inflammatory markers” value was “no protective effects”.
